{"source": "patent US20220389515A1", "about": "“USE OF BIOMARKERS TO PREDICT CLINICAL SENSITIVITY TO 2-(4-CHLOROPHENYL)-N-((2-(2,6-DIOXOPIPERIDIN-3-YL)-1-OXOISOINDOLIN-5-YL)METHYL)-2,2-DIFLUOROACETAMIDE” (priority 2019, published 2022)", "tested_on": "U937 cells stably expressing Cas9", "test": "Genome-wide CRISPR-Cas9 screen of Compound D response", "type": "cell-based, human", "description": "FIG. 4A illustrates the schematic showing the design of the genome-wide CRISPR screen to identify molecular determinants of Compound D response. FIG. 4B illustrates the cell proliferation curve of U937-Cas9 cells transduced with the lentiviral sgRNA library and treated with DMSO or Compound D. Three days post-transduction, cells were treated with DMSO or 10 μM Compound D for 9 days. FIG. 4C illustrates normalized sgRNA read count comparison of different treatment conditions and technical replicates on day 3 and day 12 post-transduction of the lentiviral sgRNA library. 150 k sgRNAs are used in the scatter plots. Numbers in the upper right boxes indicate the Pearson correlation coefficient between samples. “***” indicates the correlation p-value is <0.001. sgRNAs targeting UBE2G1 or CRBN were shown in green and red, respectively. FIG. 4D illustrates pathway enrichment analysis of genes enriched by Compound D treatment with log 2 fold change (log 2FC)>2 and false discovery rate (FDR)<0.05 relative to the DMSO control. The color and size of the dots represent adjusted significance level and gene ratio respectively. Gene ratios refer to the number of input genes annotated to an individual pathway as a ratio of all input genes annotated to any Reactome pathway. […] The X axis denotes the Compound D enrichment score shown as log 2FC; the Y axis denotes the gene essentiality score shown as log 2FC (T12_DMSO vs T3_DMSO). Some of these genes were grouped into 10 functional modules with different color coding. […] Enriched pathways from the Reactome database were identified using Fisher's exact test and were selected by adjusted p-value (FDR)<0.05. Pathway nodes are color-coded with different shades of red according to their statistical significance. The grey nodes in the graph depict pathway genes that were enriched by Compound D treatment. The core enriched pathways modulating the response to Compound D are highlighted with green circles. FIGS. 4G and 4H show the log 2FC values of sgRNAs targeting Compound D enriched genes in the functional modules as indicated. […]", "data": [{"smiles": "O=C1CCC(N2Cc3cc(CNC(=O)C(F)(F)c4ccc(Cl)cc4)ccc3C2=O)C(=O)N1", "note": "(stereo not drawn) [Compound D, 2-(4-chlorophenyl)-N-((2-(2,6-dioxopiperidin-3-yl)-1-oxoisoindolin-5-yl)methyl)-2,2-difluoroacetamide]", "values": [{"measurement": "growth of U937 cells transduced with the lentiviral CRISPR library", "setting": "10 μM, 9 days", "value": "growth arrest of U937 cells"}, {"measurement": "genes whose knockout conferred resistance (sgRNA enrichment)", "setting": "U937-Cas9, 1 μM or 10 μM", "value": "knockout of CRBN, TSC1, TSC2, ILF2, ILF3, ATF4, GCN2, DDIT4 or GCN1L1 genes conferred resistance to lethal doses of Compound D"}, {"measurement": "genes whose knockout enhanced sensitivity (sgRNA drop-out)", "setting": "U937-Cas9, sensitivity screen", "value": "knockout of RPTOR, MTOR, RICTOR, GSPT1 or DDX5 enhanced sensitivity to lethal doses of Compound D"}]}]}
